We go through 48 molecules from the Kinase Knowledgebase extract (Sharma et al. 2016).

The structures appear in SMILES notation. Where only a bound is given, the exact number is not on record here.

In this experiment the target is PIK3CA (human) (UniProt P42336). The experiment in a line: Assessment of PIK3CA Kinase Activity.
PIK3CA (human), sequence (P42336 whole entry, looked up): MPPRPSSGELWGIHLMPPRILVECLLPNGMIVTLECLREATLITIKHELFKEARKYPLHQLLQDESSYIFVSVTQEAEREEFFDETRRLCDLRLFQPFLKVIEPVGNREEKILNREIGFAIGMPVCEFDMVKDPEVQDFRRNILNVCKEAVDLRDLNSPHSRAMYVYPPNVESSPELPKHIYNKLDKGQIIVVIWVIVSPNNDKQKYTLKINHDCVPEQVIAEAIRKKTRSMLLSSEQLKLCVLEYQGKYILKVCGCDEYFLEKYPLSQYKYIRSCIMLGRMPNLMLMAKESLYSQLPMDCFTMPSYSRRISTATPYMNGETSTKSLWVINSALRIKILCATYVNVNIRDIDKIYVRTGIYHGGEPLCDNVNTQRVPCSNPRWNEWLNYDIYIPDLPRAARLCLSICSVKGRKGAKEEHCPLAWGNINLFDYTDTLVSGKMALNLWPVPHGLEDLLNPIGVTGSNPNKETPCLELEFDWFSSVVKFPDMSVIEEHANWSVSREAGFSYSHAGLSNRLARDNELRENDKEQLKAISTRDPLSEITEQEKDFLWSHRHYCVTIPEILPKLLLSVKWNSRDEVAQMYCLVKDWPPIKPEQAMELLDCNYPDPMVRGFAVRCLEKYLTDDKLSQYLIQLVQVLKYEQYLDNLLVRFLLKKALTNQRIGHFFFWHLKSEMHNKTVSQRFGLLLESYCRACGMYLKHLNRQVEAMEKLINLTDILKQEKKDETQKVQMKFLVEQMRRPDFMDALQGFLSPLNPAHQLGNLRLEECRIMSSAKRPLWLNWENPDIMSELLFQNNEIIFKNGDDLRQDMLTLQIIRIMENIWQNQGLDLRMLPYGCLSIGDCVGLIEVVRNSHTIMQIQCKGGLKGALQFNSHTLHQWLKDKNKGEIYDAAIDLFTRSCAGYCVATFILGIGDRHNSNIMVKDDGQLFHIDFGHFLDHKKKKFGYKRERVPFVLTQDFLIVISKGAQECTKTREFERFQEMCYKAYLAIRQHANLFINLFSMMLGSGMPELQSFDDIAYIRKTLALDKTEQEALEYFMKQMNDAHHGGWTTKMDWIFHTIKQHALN
Take `CN(C)C(=O)c1ccc(NC(=O)Nc2ccc(-c3nc(N4CCOCC4)c4ccc(-c5ccnnc5)cc4n3)cc2F)cc1`: the IC50 lay in the range of 50 to 200 nM. Molecule `CN(C)[C@@H]1CCN(C(=O)c2ccc(NC(=O)Nc3ccc(-c4nc(N5CCOCC5)c5ncc(-c6cnn(C)c6)cc5n4)cc3F)cc2)C1` yielded an IC50 of less than 50 nM. Regarding `CN(C)C(=O)c1ccc(NC(=O)Nc2ccc(-c3nc(N4CCOCC4)c4ncc(-c5cccnc5F)cc4n3)cc2)c(F)c1`, the half-inhibitory concentration (IC50) is less than 50 nM. `Cc1ccncc1-c1cnc2c(N3CCOCC3)nc(-c3ccc(NC(=O)Nc4ccc(C(=O)N(C)C)cc4)cc3)nc2c1` returned an IC50 of less than 50 nM.

In the case of `CN(C)[C@@H]1CCN(C(=O)c2ccc(NC(=O)Nc3ccc(-c4nc(N5CCOCC5)c5cc(F)c(-c6cccnc6)cc5n4)cc3)cc2)C1`, the IC50 was less than 50 nM.

In turn, `CN(C)C(=O)c1ccc(NC(=O)Nc2ccc(-c3nc(N4CCOCC4)c4ccc(-c5cccnc5)cc4n3)cc2F)cc1` returned an IC50 of less than 50 nM. For `Cc1noc(C)c1-c1ccc2c(N3CCOCC3)nc(-c3ccc(NC(=O)Nc4ccc(C(=O)N(C)C)cc4)c(F)c3)nc2c1`, the IC50 is less than 50 nM. As to `CN(C)C(=O)c1ccc(NC(=O)Nc2ccc(-c3nc(N4CCOCC4)c4ccc(-c5cnn(C)c5)cc4n3)cn2)c(F)c1`, the half-inhibitory concentration (IC50) is less than 50 nM. The result for `CC(=O)Nc1ccc(NC(=O)Nc2ccc(-c3nc(N4CCOCC4)c4ncc(-c5cccnc5F)cc4n3)cc2)cc1` reads less than 50 nM. In turn, `CN(C)C(=O)c1ccc(NC(=O)Nc2ccc(-c3nc(N4CCOCC4)c4ccc(-c5cnc(N(C)C)nc5)cc4n3)cc2F)cc1` returned an IC50 of 50 to 200 nM. As for `CN(C)C(=O)c1ccc(NC(=O)Nc2ccc(-c3nc(N4CCOCC4)c4ccc(-c5ccncc5)cc4n3)cc2F)cc1`, the IC50 was 50 to 200 nM. The result for `CN(C)C(=O)c1ccc(NC(=O)Nc2ccc(-c3nc(N4CCOCC4)c4cc(F)c(-c5cnn(C)c5)cc4n3)cc2F)cc1` reads 50 to 200 nM; that for `CN(C)C(=O)c1ccc(NC(=O)Nc2ccc(-c3nc(N4CCOCC4)c4ccc(-c5cncnc5)cc4n3)c(F)c2)cc1`, less than 50 nM; that for `Cc1ncccc1-c1ccc2c(N3CCOCC3)nc(-c3ccc(NC(=O)Nc4ccc(C(=O)N(C)C)cc4F)cc3)nc2c1`, less than 50 nM. `CN(C)C(=O)c1ccc(NC(=O)Nc2ccc(-c3nc(N4CCOCC4)c4ccc(-c5ccnc(F)c5)cc4n3)cc2)cc1` yielded an IC50 of less than 50 nM. `CN(C)CC(=O)Nc1cncc(-c2ccc3c(N4CCOCC4)nc(-c4ccc(NC(=O)Nc5ccc(C(=O)N(C)C)cc5)cc4)nc3c2)c1` gave an IC50 of less than 50 nM. In turn, `CC(=O)Nc1ccc(NC(=O)Nc2ccc(-c3nc(N4CCOCC4)c4ncc(-c5cnn(C)c5)cc4n3)cc2)cc1` yielded a half-maximal inhibitory concentration (IC50) of less than 50 nM. `CN(C)C(=O)c1ccc(NC(=O)Nc2ccc(-c3nc(N4CCOCC4)c4ncc(-c5cnn(C)c5)cc4n3)cc2F)cc1` returned an IC50 of less than 50 nM. Turning to `COc1ccc2c(N3CCOCC3)nc(-c3ccc(NC(=O)Nc4ccc(C(=O)N(C)C)cc4)c(F)c3)nc2c1`, the IC50 was 50 to 200 nM. Consider `CN(C)C(=O)c1ccc(NC(=O)Nc2ccc(-c3nc(N4CCOCC4)c4ncc(-c5cncnc5)cc4n3)cc2)cc1F`, for which the 50% inhibitory concentration (IC50) is less than 50 nM. On to `CN(C)C(=O)c1ccc(NC(=O)Nc2ccc(-c3nc(N4CCOCC4)c4cc(F)c(-c5cnn(C)c5)cc4n3)cc2)cc1`, for which the 50% inhibitory concentration (IC50) is less than 50 nM.

The molecule `CN(C)C(=O)c1ccc(NC(=O)Nc2ccc(-c3nc(N4CCOCC4)c4ccccc4n3)cc2)cc1` registered a concentration for half-maximal inhibition (IC50) of 50 to 200 nM. Molecule `CN(C)CCNC(=O)c1ccc(NC(=O)Nc2ccc(-c3nc(N4CCOCC4)c4ccc(-c5ccco5)cc4n3)cc2)cc1` came in with an IC50 of less than 50 nM. For the molecule `COc1ncc(-c2cnc3c(N4CCOCC4)nc(-c4ccc(NC(=O)Nc5ccc(C(=O)N(C)C)cc5)cc4)nc3c2)cn1`, the 50% inhibitory concentration (IC50) was less than 50 nM. As for `CN(C)C(=O)c1ccc(NC(=O)Nc2ccc(-c3nc(N4CCOCC4)c4ccc(-c5cccc(S(C)(=O)=O)c5)cc4n3)cc2F)cc1`, the IC50 was less than 50 nM. Next, `CN(C)C(=O)c1ccc(NC(=O)Nc2ccc(-c3nc(N4CCOCC4)c4ncc(-c5cnn(C)c5)cc4n3)cn2)cc1`: less than 50 nM. As to `Cc1noc(C)c1-c1ccc2c(N3CCOCC3)nc(-c3ccc(NC(=O)Nc4ccc(C(=O)N5CC[C@H](N(C)C)C5)cc4)c(F)c3)nc2c1`, the IC50 is 50 to 200 nM. Turning to `Cc1nn(C)c(C)c1-c1ccc2c(N3CCOCC3)nc(-c3ccc(NC(=O)Nc4ccc(C(=O)N(C)C)cc4)cc3F)nc2c1`, the IC50 was less than 50 nM. For the molecule `CN(C)C(=O)c1ccc(NC(=O)Nc2ccc(-c3nc(N4CCOCC4)c4cccc(-c5cccnc5F)c4n3)cc2)cc1`, the 50% inhibitory concentration (IC50) lay within 50 to 200 nM. In the case of `COc1ncc(-c2ccc3c(N4CCOCC4)nc(-c4ccc(NC(=O)Nc5ccc(C(=O)N(C)C)cc5F)cc4)nc3c2)cn1`, the 50% inhibitory concentration (IC50) was 50 to 200 nM. With `CN(C)C(=O)c1ccc(NC(=O)Nc2ccc(-c3nc(N4CCOCC4)c4ccc(-c5ccco5)cc4n3)c(F)c2)cc1`, the IC50 lay in the range of 50 to 200 nM.

For `CN(C)C(=O)c1ccc(NC(=O)Nc2ccc(-c3nc(N4CCOCC4)c4ccc(-c5cnc(N(C)C)nc5)cc4n3)c(F)c2)cc1`, the IC50 is less than 50 nM. `CN(C)C(=O)c1ccc(NC(=O)Nc2ccc(-c3nc(N4CCOCC4)c4ccc(-c5ccco5)cc4n3)cn2)cc1` came in with an IC50 of less than 50 nM. Next, `CN(C)C(=O)c1ccc(NC(=O)Nc2ccc(-c3nc(N4CCOCC4)c4ccc(-c5cnc(O)nc5)cc4n3)cc2)cc1`: less than 50 nM. Take `CNC(=O)c1ccc(NC(=O)Nc2ccc(-c3nc(N4CCOCC4)c4ccc(-c5cncnc5)cc4n3)cc2)cc1`: the IC50 fell in the range of 50 to 200 nM. In turn, `CN(C)C(=O)c1ccc(NC(=O)Nc2ccc(-c3nc(N4CCOCC4)c4ccc(-c5cccs5)cc4n3)cc2)cc1` gave an IC50 of less than 50 nM. Turning to `Cc1ccc(-c2ccc3c(N4CCOCC4)nc(-c4ccc(NC(=O)Nc5ccc(C(=O)N6CCN(C)CC6)cc5)cc4)nc3c2)o1`, the IC50 lay within 50 to 200 nM. The result for `CN(C)C(=O)c1ccc(NC(=O)Nc2ccc(-c3nc(N4CCOCC4)c4cccc(-c5ccc(F)nc5)c4n3)cc2)cc1` reads 50 to 200 nM; that for `CC(=O)c1ccc(-c2ccc3c(N4CCOCC4)nc(-c4ccc(NC(=O)Nc5ccc(C(=O)N(C)C)c(F)c5)cc4)nc3c2)o1`, less than 50 nM; that for `CC1CN(c2nc(-c3ccc(NC(=O)Nc4ccc(C(=O)N(C)C)cc4)c(F)c3)nc3cc(-c4cncnc4)ccc23)CCO1` (stereo not drawn), 50 to 200 nM.

In the case of `CN(C)C(=O)c1ccc(NC(=O)Nc2ccc(-c3nc(N4CCOCC4)c4ccc(-c5cncnc5)cc4n3)cc2)cc1F`, the concentration for half-maximal inhibition (IC50) was less than 50 nM. The molecule `CN(C)C(=O)c1ccc(NC(=O)Nc2ccc(-c3nc(N4CCOCC4)c4ccc(-c5cncc(F)c5)cc4n3)cc2)cc1` gave a half-inhibitory concentration (IC50) of less than 50 nM. The result for `CN(C)C(=O)c1ccc(NC(=O)Nc2ccc(-c3nc(N4CCOCC4)c4ccc(-c5ccc(C(=O)O)o5)cc4n3)cc2)cc1` reads less than 50 nM. Consider `CN(C)[C@H]1CCN(C(=O)c2ccc(NC(=O)Nc3ccc(-c4nc(N5CCOCC5)c5ncc(-c6cnn(C)c6)cc5n4)cc3F)cc2)C1`, for which the IC50 is less than 50 nM.

As for `Cc1ncccc1-c1ccc2c(N3CCOCC3)nc(-c3ccc(NC(=O)Nc4ccc(C(=O)N(C)C)cc4)cc3)nc2c1`, the IC50 is less than 50 nM. Regarding `CN(C)C(=O)c1ccc(NC(=O)Nc2ccc(-c3nc(N4CCOCC4)c4ncc(-c5cccnc5)cc4n3)cc2F)cc1`, the IC50 is less than 50 nM.

The molecule `Cc1ccc(-c2ccc3c(N4CCOCC4)nc(-c4ccc(NC(=O)Nc5ccc(C(=O)N(C)C)cc5)nc4)nc3c2)o1` displayed an IC50 of less than 50 nM.

The molecule `CC1CN(c2nc(-c3ccc(NC(=O)Nc4ccc(C(=O)N(C)C)cc4)cc3)nc3cc(-c4cnn(C)c4)cnc23)CCO1` (stereo not drawn) came in with an IC50 of less than 50 nM.

One may read the IC50 as the concentration needed to halve the response being measured. Read a high IC50 as weaker potency.
